Results: US10849881B2, “Octahydro-cyclobuta[1,2-c;3,4-c′]dipyrrol-2-yl” (Hoffmann-La Roche Inc., priority 2013, dated 2020)

Target: ATX (human His-tagged) (Homo sapiens (Human), UniProt Q13822)
Assay: Human ATX enzyme inhibition assay (fluorescence quenching, MR121 substrate)
Format: biochemical
Details: 30 nM ATX, 1 μM MR121 substrate, 30° C., pH 8.0
Method: Human ATX Enzyme Inhibition Assay
ATX inhibition was measured by a fluorescence quenching assay using a specifically labeled substrate analogue (MR121 substrate). To obtain this MR121 substrate, BOC and TBS protected 6-amino-hexanoic acid (R)-3-({2-[3-(2-{2-[2-(2-amino-ethoxy)-ethoxy]-ethoxy}-ethoxy)-propionylamino]-ethoxy}-hydroxy-phosphoryloxy)-2-hydroxy-propyl ester (Ferguson et al., Org Lett 2006, 8 (10), 2023) was labeled with MR121 fluorophore (CAS 185308-24-1, 1-(3-carboxypropyl)-11-ethyl-1,2,3,4,8,9,10,11-octahydro-dipyrido[3,2-b:2′,3′-i]phenoxazin-13-ium) on the free amine of the ethanolamine side and then, after deprotection, subsequently with tryptophan on the side of the aminohexanoic acid.
Assay working solutions were made as follows:
Assay buffer (50 mM Tris-HCl, 140 mM NaCl, 5 mM KCl, 1 mM CaCl2, 1 mM MgCl2, 0.01% Triton-X-100, pH 8.0;
ATX solution: ATX (human His-tagged) stock solution (1.08 mg/mL in 20 mM bicine, pH 8.5, 0.15 M NaCl, 10% glycerol, 0.3% CHAPS, 0.02% NaN3), diluted to 1.4-2.5× final concentration in assay buffer;
MR121 substrate solution: MR121 substrate stock solution (800 μM MR121 substrate in DMSO), diluted to 2-5× final concentration in assay buffer.
Test compounds (10 mM stock in DMSO, 8 μL) were obtained in 384 well sample plates (Corning Costar #3655) and diluted with 8 μL DMSO. Row-wise serial dilutions were made by transferring 8 μL cpd solution to the next row up to row O. The compound and control solutions were mixed five times and 2 μL were transferred to 384 well assay plates (Corning Costar #3702). Then, 15 μL of 41.7 nM ATX solution was added (30 nM final concentration), mixed five times and then incubated for 15 minutes at 30° C. 10 μL of MR121 substrate solution was added (1 μM final concentration), mixed 30 times and then incubated for 15 minutes at 30′C.

| Structure (SMILES) | IC50 [µM] |
| --- | --- |
| O=C(c1ccc2[nH]nnc2c1)N1C[C@@H]2[C@H](C1)[C@H]1CN(C(=O)C3CCc4ccccc4O3)C[C@@H]21 (stereo partly drawn) [Example 1.042, [(3aR,3bS,6aR,6bS)-5-(1H-benzotriazole-5-carbonyl)-octahydro-cyclobuta[1,2-c;3,4-c′]dipyrrol-2-yl]-chroman-2-yl-methanone] | 0.632 |
| O=C(c1ccc2[nH]nnc2c1)N1C[C@@H]2[C@H](C1)[C@H]1CN(C(=O)c3cc4cc(Cl)ccc4[nH]3)C[C@@H]21 [Example 1.048, [(3aR,3bS,6aR,6bS)-5-(1H-benzotriazole-5-carbonyl)-octahydro-cyclobuta[1,2-c;3,4-c′]dipyrrol-2-yl]-(5-chloro-1H-indol-2-yl)-methanone] | 0.208 |
| COCCOc1cc(C(=O)N2C[C@@H]3[C@H](C2)[C@H]2CN(C(=O)c4ccc5[nH]nnc5c4)C[C@@H]32)cc2ccccc12 [Example 1.049, [(3aS,3bS,6aR,6bR)-5-(1H-benzotriazole-5-carbonyl)-octahydro-cyclobuta[1,2-c;3,4-c′]dipyrrol-2-yl]-[4-(2-methoxy-ethoxy)-naphthalen-2-yl]-methanone] | 0.004 |
| O=C(c1ccc2ccc(-c3ccccc3)cc2c1)N1C[C@@H]2[C@H](C1)[C@H]1CN(C(=O)c3ccc4[nH]nnc4c3)C[C@@H]21 [Example 1.050, [(3aS,3bS,6aR,6bR)-5-(1H-benzotriazole-5-carbonyl)-octahydro-cyclobuta[1,2-c;3,4-c′]dipyrrol-2-yl]-(7-phenyl-naphthalen-2-yl)-methanone] | 0.008 |
| CC(C)Oc1cc(C(=O)N2C[C@@H]3[C@H](C2)[C@H]2CN(C(=O)c4ccc5[nH]nnc5c4)C[C@@H]32)cc2ccccc12 [Example 1.052, [(3aS,3bS,6aR,6bR)-5-(1H-benzotriazole-5-carbonyl)-octahydro-cyclobuta[1,2-c;3,4-c′]dipyrrol-2-yl]-(4-isopropoxy-naphthalen-2-yl)-methanone] | 0.0035 |
| O=C(c1ccc2c(c1)CCCC2)N1C[C@@H]2[C@H](C1)[C@H]1CN(C(=O)c3ccc4[nH]nnc4c3)C[C@@H]21 [Example 1.054, [(3aS,3bS,6aR,6bR)-5-(1H-benzotriazole-5-carbonyl)-octahydro-cyclobuta[1,2-c;3,4-c′]dipyrrol-2-yl]-(5,6,7,8-tetrahydro-naphthalen-2-yl)-methanone] | 0.0592 |
| COCCCN1CC(C(=O)N2C[C@@H]3[C@H]4CN(C(=O)c5ccc6[nH]nnc6c5)C[C@H]4[C@@H]3C2)Cc2ccccc21 (stereo partly drawn) [Example 1.056, [(3aS,3bR,6aS,6bR)-5-(1H-benzotriazole-5-carbonyl)-octahydro-cyclobuta[1,2-c;3,4-c′]dipyrrol-2-ylH1-(3-methoxy-propyl)-1,2,3,4-tetrahydro-quinolin-3-yl]-methanone] | 0.029 |
| COCCOc1nc(C(=O)N2C[C@@H]3[C@H]4CN(C(=O)c5ccc6[nH]nnc6c5)C[C@H]4[C@@H]3C2)cc2ccccc12 [Example 1.057, [(3aR,3bS,6aR,6bS)-5-(1H-benzotriazole-5-carbonyl)-octahydro-cyclobuta[1,2-c;3,4-c′]dipyrrol-2-yl]-[1-(2-methoxy-ethoxy)-isoquinoline-3-yl]-methanone] | 0.0077 |
| O=C(c1ccc2[nH]nnc2c1)N1C[C@@H]2[C@H](C1)[C@H]1CN(C(=O)c3cc4ccccc4c(OCC4CC4)n3)C[C@@H]21 [Example 1.058, [(3aR,3bS,6aR,6bS)-5-(1H-benzotriazole-5-carbonyl)-octahydro-cyclobuta[1,2-c;3,4-c′]dipyrrol-2-yl]-(1-cyclopropylmethoxy-isoquinolin-3-yl)-methanone] | 0.0053 |

The remaining lines, values ahead:

| IC50 [µM] | Structure (SMILES) |
| --- | --- |
| 0.538 | O=C1CC(C(=O)N2C[C@@H]3[C@H]4CN(C(=O)c5ccc6[nH]nnc6c5)C[C@H]4[C@@H]3C2)Cc2ccccc21 (stereo partly drawn) [Example 1.041, 3-[(3aS,3bR,6aS,6bR)-5-(1H-benzotriazole-5-carbonyl)-octahydro-cyclobuta[1,2-c;3,4-c′]dipyrrole-2-carbonyl]-3,4-dihydro-2H-naphthalen-1-one] |
| 1.41 | O=C(c1ccc2[nH]ccc2c1)N1C[C@@H]2[C@H](C1)[C@H]1CN(C(=O)c3ccc4[nH]nnc4c3)C[C@@H]21 [Example 1.043, [(3aS,3bS,6aR,6bR)-5-(1H-benzotriazole-5-carbonyl)-octahydro-cyclobuta[1,2-c;3,4-c′]dipyrrol-2-yl]-(1H-indol-5-yl)-methanone] |
| 0.013 | COc1cc(C(=O)N2C[C@@H]3[C@H](C2)[C@H]2CN(C(=O)[C@@H]4CCc5[nH]nnc5C4)C[C@@H]32)cc2ccccc12 [Example 1.044, (4-methoxy-naphthalen-2-yl)-[(3aR,3bS,6aR,6bS)-5-((R)-4,5,6,7-tetrahydro-1H-benzotriazole-5-carbonyl)-octahydro-cyclobuta[1,2-c;3,4-c′]dipyrrol-2-yl]-methanone] |
| 0.011 | O=C(c1ccc(-c2ccc(Cl)cc2)nc1)N1C[C@@H]2[C@H](C1)[C@H]1CN(C(=O)c3ccc4[nH]nnc4c3)C[C@@H]21 [Example 1.045, [(3aS,3bS,6aR,6bR)-5-(1H-benzotriazole-5-carbonyl)-octahydro-cyclobuta[1,2-c;3,4-c′]dipyrrol-2-yl]-[6-(4-chloro-phenyl)-pyridin-3-yl]-methanone] |
| 0.028 | COc1nc(C(=O)N2C[C@@H]3[C@H]4CN(C(=O)c5ccc6[nH]nnc6c5)C[C@H]4[C@@H]3C2)cc2ccccc12 [Example 1.046, [(3aR,3bS,6aR,6bS)-5-(1H-benzotriazole-5-carbonyl)-octahydro-cyclobuta[1,2-c;3,4-c′]dipyrrol-2-yl]-(1-methoxy-isoquinolin-3-yl)-methanone] |
| 0.205 | Cc1cc(C(=O)N2C[C@@H]3[C@H]4CN(C(=O)c5ccc6[nH]nnc6c5)C[C@H]4[C@@H]3C2)nc2ccccc12 [Example 1.047, [(3aR,3bS,6aR,6bS)-5-(1H-benzotriazole-5-carbonyl)-octahydro-cyclobuta[1,2-c;3,4-c′]dipyrrol-2-yl]-(4-methyl-quinolin-2-yl)-methanone] |
| 0.007 | CCOc1cc(C(=O)N2C[C@@H]3[C@H](C2)[C@H]2CN(C(=O)c4ccc5[nH]nnc5c4)C[C@@H]32)cc2ccccc12 [Example 1.051, [(3aS,3bS,6aR,6bR)-5-(1H-benzotriazole-5-carbonyl)-octahydro-cyclobuta[1,2-c;3,4-c′]dipyrrol-2-yl]-(4-ethoxy-naphthalen-2-yl)-methanone] |
| 0.014 | O=C(c1ccc2[nH]nnc2c1)N1C[C@@H]2[C@H](C1)[C@H]1CN(C(=O)c3cc(OCc4ccccc4)c4cc[nH]c4c3)C[C@@H]21 [Example 1.053, [(3aS,3bS,6aR,6bR)-5-(1H-benzotriazole-5-carbonyl)-octahydro-cyclobuta[1,2-c;3,4-c′]dipyrrol-2-yl]-(4-benzyloxy-1H-indol-6-yl)-methanone] |
| 0.022 | CC1(C)CC(C(=O)N2C[C@@H]3[C@H]4CN(C(=O)c5ccc6[nH]nnc6c5)C[C@H]4[C@@H]3C2)Cc2ccccc21 (stereo partly drawn) [Example 1.055, [(3aS,3bR,6aS,6bR)-5-(1H-benzotriazole-5-carbonyl)-octahydro-cyclobuta[1,2-c;3,4-c′]dipyrrol-2-yl]-(4,4-dimethyl-1,2,3,4-tetrahydro-naphthalen-2-yl)-methanone] |
| 0.0013 | CC(C)Oc1cc(C(=O)N2C[C@@H]3[C@H](C2)[C@H]2CN(C(=O)[C@@H]4CCc5[nH]nnc5C4)C[C@@H]32)cc2ccccc12 [Example 1.059, (4-isopropoxy-naphthalen-2-yl)-[(3aR,3bS,6aR,6bS)-5-((R)-4,5,6,7-tetrahydro-1H-benzotriazole-5-carbonyl)-octahydro-cyclobuta[1,2-c;3,4-c′]dipyrrol-2-yl]-methanone] |
| 0.0047 | O=C(c1ccc2[nH]nnc2c1)N1C[C@@H]2[C@H](C1)[C@H]1CN(C(=O)c3cc4ccccc4c(OCC(F)(F)F)n3)C[C@@H]21 [Example 1.060, [(3aR,3bS,6aR,6bS)-5-(1H-benzotriazole-5-carbonyl)-octahydro-cyclobuta[1,2-c;3,4-c′]dipyrrol-2-yl]-[1-(2,2,2-trifluoro-ethoxy)-isoquinolin-3-yl]-methanone] |
| 0.0405 | CC(C)Oc1cc(C(=O)N2C[C@@H]3[C@H]4CN(C(=O)c5ccc6[nH]nnc6c5)C[C@H]4[C@@H]3C2)cc2[nH]ccc12 [Example 1.061, [(3aS,3bS,6aR,6bR)-5-(1H-benzotriazole-5-carbonyl)-octahydro-cyclobuta[1,2-c;3,4-c′]dipyrrol-2-yl]-(4-isopropoxy-1H-indol-6-yl)-methanone] |
